Laboratory results reported in ChEMBL document CHEMBL2074099, “Divergent regulation of the class II P-glycoprotein gene in primary cultures of hepatocytes versus H35 hepatoma by glucocorticoids” (Cell Growth Differ, 1995).

What was measured:
[1] = target: T1, ATP-dependent translocase ABCB1 (Rattus norvegicus, UniProt P43245); assay: TP_TRANSPORTER: Northern blot from primary hepatocytes; format: functional, cell-based, Hepatocyte
[2] = target: T1, ATP-dependent translocase ABCB1; assay: TP_TRANSPORTER: Western blot, primary hepatocytes; format: functional, cell-based, Hepatocyte

T1 sequence (P43245 whole entry): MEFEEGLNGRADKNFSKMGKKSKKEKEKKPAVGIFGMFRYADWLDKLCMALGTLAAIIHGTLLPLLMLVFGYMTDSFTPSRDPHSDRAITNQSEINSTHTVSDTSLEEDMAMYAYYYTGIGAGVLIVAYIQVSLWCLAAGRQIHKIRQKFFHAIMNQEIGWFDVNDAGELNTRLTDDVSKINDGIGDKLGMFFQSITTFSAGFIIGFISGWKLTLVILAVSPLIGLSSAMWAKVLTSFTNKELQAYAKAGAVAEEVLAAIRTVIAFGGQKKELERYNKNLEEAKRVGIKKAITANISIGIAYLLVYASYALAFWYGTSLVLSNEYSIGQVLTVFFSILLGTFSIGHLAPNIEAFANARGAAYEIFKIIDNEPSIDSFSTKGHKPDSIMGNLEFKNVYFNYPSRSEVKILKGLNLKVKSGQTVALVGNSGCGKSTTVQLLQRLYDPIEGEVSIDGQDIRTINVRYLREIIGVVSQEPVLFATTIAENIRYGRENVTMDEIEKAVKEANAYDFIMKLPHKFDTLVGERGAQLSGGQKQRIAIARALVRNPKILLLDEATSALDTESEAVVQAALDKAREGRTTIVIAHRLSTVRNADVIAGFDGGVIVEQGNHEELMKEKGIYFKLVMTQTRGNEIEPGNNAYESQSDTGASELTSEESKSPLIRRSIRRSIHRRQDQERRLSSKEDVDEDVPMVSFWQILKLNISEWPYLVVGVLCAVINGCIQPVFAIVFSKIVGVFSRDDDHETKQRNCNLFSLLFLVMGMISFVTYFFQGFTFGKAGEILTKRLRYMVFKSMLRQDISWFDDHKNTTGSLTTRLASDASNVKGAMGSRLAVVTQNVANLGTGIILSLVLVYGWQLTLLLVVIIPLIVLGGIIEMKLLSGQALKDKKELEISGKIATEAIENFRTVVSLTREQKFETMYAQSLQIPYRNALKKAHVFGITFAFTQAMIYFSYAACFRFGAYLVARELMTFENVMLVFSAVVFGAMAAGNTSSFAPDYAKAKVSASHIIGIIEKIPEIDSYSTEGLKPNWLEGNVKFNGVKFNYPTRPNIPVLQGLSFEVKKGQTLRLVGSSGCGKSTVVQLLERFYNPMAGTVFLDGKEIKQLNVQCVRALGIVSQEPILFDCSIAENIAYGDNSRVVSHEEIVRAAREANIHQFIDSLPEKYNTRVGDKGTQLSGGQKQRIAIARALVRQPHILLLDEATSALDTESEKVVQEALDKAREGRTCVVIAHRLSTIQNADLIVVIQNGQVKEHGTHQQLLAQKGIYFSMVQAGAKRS

## C[C@@H]1C[C@H]2[C@@H]3CCC4=CC(=O)C=C[C@]4(C)[C@@]3(F)[C@@H](O)C[C@]2(C)[C@@]1(O)C(=O)CO [DEXAMETHASONE]
[1]
  Activity: inducer [Decrease]
[2]
  Activity: inducer [Decrease]
